Patent US8529889B2, “Methods and compositions related to the modulation of intercellular junctions” (Massachusetts Institute of Technology, priority 2004, dated 2013)
“Also recorded” adds a separate entry of the source.

Columns and labels:
[1] = system: 16HBE14O-human virally transformed bronchial epithelial cells; assay: Tight junction (ZO-1) disruption by immunofluorescence and confocal microscopy, 16HBE14O-; assay type: cell-based; conditions: 16HBE14O- cells; for disruption of ZO-1 / tight junctions (epithelial permeability): hep III 10 μg/mL, hep I 6 μg/mL, C-ABC 50 μU/mL, EGTA 5 mM, 20 min. at 37° C.
Procedure: (§1) Heparinase III (hep III) was made as described previously (Godavarti R et al., 1996); heparinase I (hep I) was a generous gift from Momenta pharmaceuticals (Cambridge, Mass.); chondroitinase ABC (C-ABC) lyase was purchased from Seikagaku (East Falmouth, Mass.). Hep III was added to the apical side of the cells at a concentration of 10 μg/mL; hep I was added at a concentration of 6 μg/mL, and C-ABC was added at 50 μU/mL. The concentration of ethylene glycol tetra acetic acid (EGTA) (Sigma) used was 5 mM. All the enzymes and the EGTA were made up in serum free Eagle's Minimal Essential medium with 2 mM L-glutamine. Heparin solution was made up to a concentration of 15 mM in serum free media and added to the apical side of the cells after removing the cell medium. Ardeparin sodium and ardeparin calcium powder were added to cells at 6 mg/well, and ardeparin solution was made up to a final concentration of 18 mM.
(§2) Cells grown on glass coverslips were fixed with 10% buffered formalin for 10 min. Cells were then permeabilized with 0.5% Triton-100 (Sigma) in Tris Buffer Saline with 1% Tween-20 (TBST) for 15 min. at room temperature. Nonspecific antibody binding was blocked with 0.1% bovine serum albumin (BSA) for 30 min. at room temperature. The cells were incubated with primary antibody at room temperature for 4 hours and washed 3 times with PBS. The cells were then incubated in the appropriate secondary antibody for 1 hour in the dark at room temperature and washed 3 times with PBS.
16HBE14O-cells were grown to confluency on fibronectin coated coverslips for 4 to 5 days after seeding. The cells were then incubated with hep III, hep I, C-ABC and EGTA made up to the final concentration described above for 20 min. at 37° C. Using the primary rabbit anti-ZO-1 antibody and the secondary goat anti-rabbit Texas Red antibody, the cells were analyzed by the immunofluorescence and confocal microscopy technique discussed above. […] Localization of the tight junction protein in untreated cells is also shown as a control.

syndecan-4 = assay: Syndecan-4 ectodomain shedding, dot immunoassay, 16HBE14O- cells; assay type: cell-based, human; conditions: hep III 10 μg/mL, hep I 6 μg/mL, C-ABC 50 μU/mL
Procedure: as §1
(§3) Specificity and quantification of the dot immunoassay for shed syndecan-1 and -4 ectodomains has been previously described in detail (Subramanian et al., 1997). In brief, the conditioned media were diluted in buffer A (0.15 M NaCl buffered to pH 4.5 with 50 mM sodium acetate and with 0.1% Triton X-100) and applied to catonic polyvinylidine diflouride-based membranes (Immobilin-N) (Millipore, Bedford, Mass.) under mild vacuum in an immunodot apparatus (V&P Scientific, San Diego, Calif.). […]
(§4) Detection was by the ECL system (Amersham) as described by the manufacturer. Results were quantified by scanning the exposed membrane with a Kodak Image Station.
(§5) 16HBE14O-cells were grown to about 80% confluency in 6 well plates. […] To evaluate the changes in cell number, the cells were trypsinized and counted with a coulter-counter after incubation. […] The membranes were then incubated in mouse anti-syndecan-1 and in the appropriate secondary antibody and were developed and analyzed as described above. […]

[2] = system: MCF-7 (human mammary cancer) cells; assay: Tight junction disruption in MCF-7 cells; assay type: cell-based
Procedure: as §1, §2

[3] = system: calu-3 human lung adenocarcinoma epithelial cells; assay: Tight junction (ZO-1) and actin filament disruption by immunofluorescence and confocal microscopy, calu-3; assay type: cell-based; conditions: calu-3 cells
Procedure: as §1, §2
Calu-3 cells were seeded on gelatin coated coverslips and were allowed to grow for about 4 to 5 days to about 80% confluency. UFH powder was added to the apical side of the cells using an insufflator to ensure homogenous distribution of the powder on the coverslip.

syndecan-1 = assay: Syndecan-1 ectodomain shedding, dot immunoassay, 16HBE14O- cells; assay type: cell-based, human; conditions: hep III 10 μg/mL, hep I 6 μg/mL, C-ABC 50 μU/mL
Procedure: as §1, §3, §4, §5

[4] = system: caco-2 (human colon adenocarcinoma) cells; assay: Tight junction disruption in caco-2 cells; assay type: cell-based
Procedure: as §1, §2

Row | Molecule | disruption of ZO-1 / tight junctions (epithelial permeability) [1] | disruption of ZO-1 / tight junctions (epithelial permeability) ([1]; listed as C-ABC) | syndecan-4 ectodomain shedding (syndecan-4) | tight junction disruption (epithelial permeability) [2] | disruption of ZO-1 / tight junctions (epithelial permeability) [3] | syndecan-1 ectodomain shedding (syndecan-1) | tight junction disruption (epithelial permeability) [4] | time for cell line to recover from the effect of the treatment [1] | time for cell line to recover from the effect of the treatment [2] | time for cell line to recover from the effect of the treatment [3] | time for cell line to recover from the effect of the treatment [4] | disruption of ZO-1 / tight junctions (epithelial permeability) ([1]; listed as hep I) | disruption of ZO-1 / tight junctions (epithelial permeability) ([1]; listed as hep III)
1 | chondroitinase ABC [cABC] | more pronounced effect than Hep III | cause different amounts of disruption of the tight junctions | did not cause an increase in syndecan-4 ectodomain shedding | Hep III had more effect on tight junction disruption than cABC and Hep I | more effect than Hep I | causes syndecan-1 ectodomain shedding | Hep III had more effect on tight junction disruption than cABC and Hep I |  |  |  |  |  | 
2 | O=C(O)CN(CCOCCOCCN(CC(=O)O)CC(=O)O)CC(=O)O [EGTA, ethylene glycol tetra acetic acid, reference compound] | caused a disruption of the junctional complex; also recorded: cause different amounts of disruption of the tight junctions |  |  | caused a disruption of the junctional complex | caused a disruption of the junctional complex |  | caused a disruption of the junctional complex | about 8 hours | about 8 hours | about 8 hours | about 8 hours |  | 
3 | heparinase I (protein, UniProt Q05819 22-384, looked up, Glycosaminoglycan-degrading enzyme; cleaves HSGAGs at the more sulfated, heparin-like regions) Heparin lyase I: QQKKSGNIPYRVNVQADSAKQKAIIDNKWVAVGINKPYALQYDDKLRFNGKPSYRFELKAEDNSLEGYAAGETKGRTELSYSYATTNDFKKFPPSVYQNAQKLKTVYHYGKGICEQGSSRSYTFSVYIPSSFPDNATTIFAQWHGAPSRTLVATPEGEIKTLSIEEFLALYDRMIFKKNIAHDKVEKKDKDGKITYVAGKPNGWKVEQGGYPTLAFGFSKGYFYIKANSDRQWLTDKADRNNANPENSEVMKPYSSEYKTSTIAYKMPFAQFPKDCWITFDVAIDWTKYGKEANTILKPGKLDVMMTYTKNKKPQKAHIVNQQEILIGRNDDDGYYFKFGIYRVGNSTVPVTYNLSGYSETAR | more pronounced effect than Hep III |  | did not cause an increase in syndecan-4 ectodomain shedding | Hep III had more effect on tight junction disruption than cABC and Hep I | Hep III and cABC had more effect than Hep I | causes syndecan-1 ectodomain shedding | Hep III had more effect on tight junction disruption than cABC and Hep I |  |  |  |  | cause different amounts of disruption of the tight junctions | 
4 | heparinase III (protein, UniProt Q59289 25-659, looked up, Glycosaminoglycan-degrading enzyme; cleaves the less/unsulfated, heparan sulfate-like regions) Heparin-sulfate lyase: QSSSITRKDFDHINLEYSGLEKVNKAVAAGNYDDAAKALLAYYREKSKAREPDFSNAEKPADIRQPIDKVTREMADKALVHQFQPHKGYGYFDYGKDINWQMWPVKDNEVRWQLHRVKWWQAMALVYHATGDEKYAREWVYQYSDWARKNPLGLSQDNDKFVWRPLEVSDRVQSLPPTFSLFVNSPAFTPAFLMEFLNSYHQQADYLSTHYAEQGNHRLFEAQRNLFAGVSFPEFKDSPRWRQTGISVLNTEIKKQVYADGMQFELSPIYHVAAIDIFLKAYGSAKRVNLEKEFPQSYVQTVENMIMALISISLPDYNTPMFGDSWITDKNFRMAQFASWARVFPANQAIKYFATDGKQGKAPNFLSKALSNAGFYTFRSGWDKNATVMVLKASPPGEFHAQPDNGTFELFIKGRNFTPDAGVFVYSGDEAIMKLRNWYRQTRIHSTLTLDNQNMVITKARQNKWETGNNLDVLTYTNPSYPNLDHQRSVLFINKKYFLVIDRAIGEATGNLGVHWQLKEDSNPVFDKTKNRVYTTYRDGNNLMIQSLNADRTSLNEEEGKVSYVYNKELKRPAFVFEKPKKNAGTQNFVSIVYPYDGQKAPEISIRENKGNDFEKGKLNLTLTINGKQQLVLVP | Hep I and cABC had more pronounced effect than Hep III |  | did not cause an increase in syndecan-4 ectodomain shedding | more effect on tight junction disruption than cABC and Hep I | more effect than Hep I | causes syndecan-1 ectodomain shedding | more effect on tight junction disruption than cABC and Hep I |  |  |  |  |  | cause different amounts of disruption of the tight junctions
